Test results published in ChEMBL document CHEMBL1129209, “Molecular interactions of all possible regioisomers of synthetic myo-inositol phosphates with inositol 1,4,5-trisphosphate 3-kinase” (Bioorg Med Chem Lett, 1997).

Assay: Inhibition of Inositol 1,4,5-trisphosphate 3-kinase (IP3K) from rat brain

| SMILES | IC50 [µM] |
| --- | --- |
| O=P(O)(O)O[C@H]1[C@H](O)[C@@H](OP(=O)(O)O)[C@H](OP(=O)(O)O)[C@@H](OP(=O)(O)O)[C@H]1O (stereo in doubt; form 1) | 42.1 |
| O=P(O)(O)O[C@@H]1[C@H](O)[C@H](O)[C@@H](OP(=O)(O)O)[C@H](OP(=O)(O)O)[C@H]1O (stereo in doubt; form 1) [INS(1,4,5)P3] | 3.55 |
| O=P(O)(O)O[C@H]1[C@H](O)[C@@H](OP(=O)(O)O)[C@H](OP(=O)(O)O)[C@@H](OP(=O)(O)O)[C@H]1O (stereo in doubt; form 4) | 65.2 |
| O=P(O)(O)O[C@@H]1[C@H](O)[C@H](O)[C@@H](OP(=O)(O)O)[C@H](OP(=O)(O)O)[C@H]1O (stereo in doubt; form 2) [INS(1,4,5)P3] | 12.4 |
| O=P(O)(O)O[C@H]1[C@H](O)[C@@H](OP(=O)(O)O)[C@H](OP(=O)(O)O)[C@@H](OP(=O)(O)O)[C@H]1O (stereo in doubt; form 3) | 220 |
| O=P(O)(O)O[C@H]1[C@H](O)[C@@H](OP(=O)(O)O)[C@H](OP(=O)(O)O)[C@@H](OP(=O)(O)O)[C@H]1O (stereo in doubt; form 2) | 56.7 |
